Reference: PubChem BioAssay AID248 (DTP/NCI, 2004)
Values joined by “and” are separate entries in the source; they are usually repeats but may differ in a detail not shown here. Equal entries are not always repeated. Toxic doses and inconclusive results are not listed.

System: L1210 leukemia ip in BDF1 mice, survival T/C
Test: NCI In Vivo Anticancer Drug Screen. Data for tumor model L1210 Leukemia (intraperitoneal) in B6D2F1 (BDF1) mice
Settings: endpoint: mean survival time, higher = longer survival
Method in brief: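 Tumor cells were implanted, animals were treated, and survival was followed. The result divides the treated measurement by the vehicle-control measurement.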

[1] = dose: 100.0 mg/kg/injection, schedule: Q01DX009 (ip), vehicle: saline with Tween-80
[2] = dose: 200.0 mg/kg/injection, schedule: Q01DX009 (ip), vehicle: saline with Tween-80
[3] = dose: 400.0 mg/kg/injection, schedule: Q01DX009 (ip), vehicle: saline with Tween-80
[4] = dose: 25.0 mg/kg/injection, schedule: Q01DX009 (ip), vehicle: saline
[5] = dose: 25.0 mg/kg/injection, schedule: Q04DX003 (ip), vehicle: saline
[6] = dose: 50.0 mg/kg/injection, schedule: Q01DX009 (ip), vehicle: saline
[7] = dose: 50.0 mg/kg/injection, schedule: Q04DX003 (ip), vehicle: saline
[8] = dose: 100.0 mg/kg/injection, schedule: Q04DX003 (ip), vehicle: saline
[9] = dose: 100.0 mg/kg/injection, schedule: Q04DX003 (ip), vehicle: Klucel (hydroxypropylcellulose) (HPC)
[10] = dose: 200.0 mg/kg/injection, schedule: Q04DX003 (ip), vehicle: Klucel (hydroxypropylcellulose) (HPC)
[11] = dose: 400.0 mg/kg/injection, schedule: Q04DX003 (ip), vehicle: Klucel (hydroxypropylcellulose) (HPC)
[12] = dose: 25.0 mg/kg/injection, schedule: Q04DX002 (ip), vehicle: saline with Tween-80
[13] = dose: 50.0 mg/kg/injection, schedule: Q04DX002 (ip), vehicle: saline with Tween-80
[14] = dose: 100.0 mg/kg/injection, schedule: Q01DX001 (ip), vehicle: carboxymethylcellulose (CMC)
[15] = dose: 200.0 mg/kg/injection, schedule: Q01DX001 (ip), vehicle: carboxymethylcellulose (CMC)
[16] = dose: 400.0 mg/kg/injection, schedule: Q01DX001 (ip), vehicle: carboxymethylcellulose (CMC)
[17] = dose: 100.0 mg/kg/injection, schedule: Q01DX009 (ip), vehicle: saline
[18] = dose: 200.0 mg/kg/injection, schedule: Q04DX003 (ip), vehicle: saline
[19] = dose: 400.0 mg/kg/injection, schedule: Q04DX003 (ip), vehicle: saline
[20] = dose: 200.0 mg/kg/injection, schedule: Q01DX009 (ip), vehicle: saline

`c1ccc2cc3c(cc2c1)Nc1cc2ccccc2cc1N3` was tested, and the T/C [1] was 93 % of control, the T/C (dose: 100.0 mg/kg/injection, schedule: Q04DX003 (ip), vehicle: saline with Tween-80) was 97 % of control and the T/C [2] was 93 % of control. The T/C (dose: 200.0 mg/kg/injection, schedule: Q04DX003 (ip), vehicle: saline with Tween-80) was 101 % of control, the T/C [3] was 88 % of control and the T/C (dose: 400.0 mg/kg/injection, schedule: Q04DX003 (ip), vehicle: saline with Tween-80) was 103 % of control.
In the case of `CCCCCCC(O)CCCCCCCCCCC(=O)O` (stereo not drawn), the T/C [1] was 106 % of control, the T/C [2] was 93 % of control and the T/C [3] was 88 % of control.
With `COP(N)(=S)OC` the T/C (dose: 75.0 mg/kg/injection, schedule: Q01DX001 (ip), vehicle: saline) was 101 % of control, the T/C (dose: 150.0 mg/kg/injection, schedule: Q01DX001 (ip), vehicle: saline) was 98 % of control and the T/C (dose: 300.0 mg/kg/injection, schedule: Q01DX001 (ip), vehicle: saline) was 104 % of control.
In the case of `CCCC(N=Cc1ccccc1O)C(=O)O.CCCC(N=Cc1ccccc1O)C(=O)O.[Fe]` (stereo not drawn), the T/C [4] was 95 % of control, the T/C [5] was 98 % of control and the T/C [6] was 93 % of control. The T/C [7] was 98 % of control and the T/C [8] was 96 % of control and 98 % of control.
In the case of `O=c1oc(-c2ccccc2NS(=O)(=O)c2ccccc2)nc2cc(Cl)ccc12`, the T/C (dose: 100.0 mg/kg/injection, schedule: Q01DX009 (ip), vehicle: Klucel (hydroxypropylcellulose) (HPC)) was 103 % of control, the T/C (dose: 200.0 mg/kg/injection, schedule: Q01DX009 (ip), vehicle: Klucel (hydroxypropylcellulose) (HPC)) was 104 % of control and the T/C (dose: 400.0 mg/kg/injection, schedule: Q01DX009 (ip), vehicle: Klucel (hydroxypropylcellulose) (HPC)) was 110 % of control.
In the case of `Nc1ccc(C(=O)O)c(Cl)c1`, the T/C [9] was 100 % of control, the T/C [10] was 99 % of control and the T/C [11] was 97 % of control.
In the case of `Cc1cc2oc(=O)c(Cl)c(Cl)c2c(C)c1Cl`, the T/C (dose: 10.0 mg/kg/injection, schedule: Q01DX001 (ip), vehicle: saline) was 105 % of control, the T/C (dose: 10.0 mg/kg/injection, schedule: Q01DX009 (ip), vehicle: Klucel (hydroxypropylcellulose) (HPC)) was 101 % of control and the T/C (dose: 10.0 mg/kg/injection, schedule: Q04DX003 (ip), vehicle: Klucel (hydroxypropylcellulose) (HPC)) was 86 % of control. For the same compound, the T/C (dose: 20.0 mg/kg/injection, schedule: Q01DX001 (ip), vehicle: saline) was 111 % of control, the T/C (dose: 20.0 mg/kg/injection, schedule: Q01DX009 (ip), vehicle: Klucel (hydroxypropylcellulose) (HPC)) was 101 % of control and the T/C (dose: 20.0 mg/kg/injection, schedule: Q04DX003 (ip), vehicle: Klucel (hydroxypropylcellulose) (HPC)) was 93 % of control.
In the case of `Clc1ccc2c(c1)Sc1ccc(Cl)cc1S2`, the T/C (dose: 100.0 mg/kg/injection, schedule: Q04DX002 (ip), vehicle: saline with Tween-80) was 101 % of control, the T/C (dose: 200.0 mg/kg/injection, schedule: Q04DX002 (ip), vehicle: saline with Tween-80) was 101 % of control and the T/C (dose: 400.0 mg/kg/injection, schedule: Q04DX002 (ip), vehicle: saline with Tween-80) was 97 % of control.
In the case of `Cc1cc(S(=O)(=O)F)cc(Cl)c1S`, the T/C [12] was 99 % of control and the T/C [13] was 92 % of control.
In the case of `O=NN(CCCl)C(=O)Nc1ccc(Br)cc1`, the T/C (dose: 12.0 mg/kg/injection, schedule: Q01DX009 (ip), vehicle: carboxymethylcellulose (CMC)) was 122 % of control, the T/C (dose: 12.0 mg/kg/injection, schedule: Q01DX015 (ip), vehicle: carboxymethylcellulose (CMC)) was 124 % of control and the T/C (dose: 29.0 mg/kg/injection, schedule: Q01DX015 (ip), vehicle: carboxymethylcellulose (CMC)) was 154 % of control. The T/C (dose: 44.0 mg/kg/injection, schedule: Q01DX015 (ip), vehicle: carboxymethylcellulose (CMC)) was 114 % of control and 89 % of control and the T/C [14] was 157 % of control.
With `C=CCc1cc(C)ccc1OC(=O)c1cc([N+](=O)[O-])cc([N+](=O)[O-])c1` the T/C (dose: 100.0 mg/kg/injection, schedule: Q01DX001 (ip), vehicle: saline) was 102 % of control, the T/C (dose: 200.0 mg/kg/injection, schedule: Q01DX001 (ip), vehicle: saline) was 98 % of control and the T/C (dose: 400.0 mg/kg/injection, schedule: Q01DX001 (ip), vehicle: saline) was 98 % of control.
With `CCOC(=O)CNC(=O)Nc1ccc(OC)cc1` the T/C [1] was 100 % of control, the T/C [2] was 93 % of control and the T/C [3] was 100 % of control.
`CC(=O)Nc1ccc2c(c1)C(N(C)C)c1ccccc1-2` (stereo not drawn) was tested, and the T/C (dose: 50.0 mg/kg/injection, schedule: Q01DX001 (ip), vehicle: carboxymethylcellulose (CMC)) was 101 % of control and the T/C [14] was 106 % of control.
With `COC(=O)C1=C(O)CCCC=C1C(=O)O` the T/C [14] was 100 % of control, the T/C [15] was 103 % of control and the T/C [16] was 103 % of control.
`O=C(O)C1CCCC[N-]1.O=C(O)C1CCCC[N-]1.O=C(O)C1CCCC[N-]1.O=C(O)C1CCCC[N-]1.[Cl][Rh][Cl]` (stereo not drawn) was tested, and the T/C (dose: 12.5 mg/kg/injection, schedule: Q01DX008 (ip), vehicle: water) was 98 % of control, the T/C (dose: 25.0 mg/kg/injection, schedule: Q01DX008 (ip), vehicle: water) was 98 % of control and the T/C (dose: 50.0 mg/kg/injection, schedule: Q01DX008 (ip), vehicle: water) was 103 % of control. For the same compound, the T/C (dose: 100.0 mg/kg/injection, schedule: Q01DX008 (ip), vehicle: water) was 97 % of control, the T/C [17] was 93 % of control and the T/C [8] was 102 % of control. The T/C [18] was 100 % of control and the T/C [19] was 96 % of control.
`OCC(CO)=C1c2ccccc2-c2ccccc21` was tested, and the T/C (dose: 100.0 mg/kg/injection, schedule: Q## X003 (ip), vehicle: acetone) was 102 % of control, the T/C (dose: 200.0 mg/kg/injection, schedule: Q## X003 (ip), vehicle: acetone) was 101 % of control and the T/C (dose: 400.0 mg/kg/injection, schedule: Q## X003 (ip), vehicle: acetone) was 104 % of control.
With `C#CC(C)(C)OCC1CO1` (stereo not drawn) the T/C [4] was 93 % of control, the T/C [5] was 101 % of control and the T/C [6] was 90 % of control. For the same compound, the T/C [7] was 113 % of control, the T/C [17] was 102 % of control and the T/C [8] was 108 % of control. The T/C [20] was 108 % of control, the T/C [18] was 95 % of control and the T/C (dose: 400.0 mg/kg/injection, schedule: Q01DX009 (ip), vehicle: saline) was 93 % of control. For the same compound, the T/C [19] was 106 % of control.
In the case of `Nc1cc(NC(c2ccccc2)c2ccccc2)c(N)c(N)n1`, the T/C (dose: 100.0 mg/kg/injection, schedule: Q01DX001 (ip), vehicle: gum acacia) was 88 % of control, the T/C (dose: 200.0 mg/kg/injection, schedule: Q01DX001 (ip), vehicle: gum acacia) was 90 % of control and the T/C (dose: 400.0 mg/kg/injection, schedule: Q01DX001 (ip), vehicle: gum acacia) was 92 % of control.
For `O=C1OCCN1S(=O)(=O)c1ccc(Cl)cc1`, the T/C [9] was 104 % of control, the T/C [10] was 95 % of control and the T/C [11] was 96 % of control.
In the case of `CC(C)Nc1nc(Cl)nc(NC(C)C)n1`, the T/C (dose: 150.0 mg/kg/injection, schedule: Q01DX009 (ip), vehicle: Klucel (hydroxypropylcellulose) (HPC)) was 101 % of control, the T/C [10] was 96 % of control and the T/C (dose: 225.0 mg/kg/injection, schedule: Q01DX009 (ip), vehicle: Klucel (hydroxypropylcellulose) (HPC)) was 94 % of control. The T/C (dose: 335.0 mg/kg/injection, schedule: Q01DX009 (ip), vehicle: Klucel (hydroxypropylcellulose) (HPC)) was 94 % of control and the T/C [11] was 94 % of control.
With `CCOC(=O)CNC(=O)OCCN1CCNC1=S` the T/C [1] was 98 % of control, the T/C [2] was 100 % of control and the T/C [3] was 101 % of control.
With `O=N[O-].O=N[O-].O=N[O-].O=N[O-].O=N[O-].O=N[O-].[Co+3].[Co].[NH2-].[NH2-].[NH2-].[NH2-].[NH2-].[NH2-]` the T/C [12] was 102 % of control and the T/C [13] was 115 % of control.
For `CC[N+]1=NC2CCCC(C2)C1` (stereo not drawn), the T/C [6] was 96 % of control, the T/C [17] was 86 % of control and the T/C [8] was 101 % of control. The T/C [20] was 90 % of control and the T/C [18] was 95 % of control.
With `CCCCCCCCCCCCCCCNC1=C(C)C(=O)C(NCCCCCCCCCCCCCCC)=C(C)C1=O` the T/C [14] was 93 % of control, the T/C [15] was 98 % of control and the T/C [16] was 89 % of control.
For `BrCC1COc2ccccc2O1` (stereo not drawn), the T/C [14] was 100 % of control, the T/C [15] was 100 % of control and the T/C [16] was 91 % of control.
